According to PubChem BioAssay AID330 (DTP/NCI, 2004):
“And” between values parts separate entries of the source, which are not always exact repeats. Equal values may be shown once. Inconclusive results and toxic doses are left out. The calls were made as follows: active = survival T/C of 150% or more; inactive = T/C below 125% in these data.

Tested on: P388 leukemia ip, CD2F1 mice, survival T/C
Assay: NCI In Vivo Anticancer Drug Screen. Data for tumor model P388 Leukemia (intraperitoneal) in CD2F1 (CDF1) mice
Conditions: endpoint: median survival time, higher = longer survival
In short: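 Mice carrying the transplanted tumor received test compound or vehicle. Survival was recorded in each group, and the value is the treated-group measurement divided by that of the vehicle-treated control group.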

[1] = dose: 50.0 mg/kg/injection, schedule: Q01DX009 (ip), vehicle: saline with Tween-80
[2] = dose: 50.0 mg/kg/injection, schedule: Q01DX009 (ip), vehicle: Klucel (hydroxypropylcellulose) (HPC)
[3] = dose: 100.0 mg/kg/injection, schedule: Q01DX009 (ip), vehicle: Klucel (hydroxypropylcellulose) (HPC)
[4] = dose: 200.0 mg/kg/injection, schedule: Q01DX009 (ip), vehicle: Klucel (hydroxypropylcellulose) (HPC)
[5] = dose: 50.0 mg/kg/injection, schedule: Q01DX009 (ip), vehicle: saline
[6] = dose: 100.0 mg/kg/injection, schedule: Q01DX009 (ip), vehicle: saline
[7] = dose: 6.25 mg/kg/injection, schedule: Q01DX009 (ip), vehicle: saline
[8] = dose: 12.5 mg/kg/injection, schedule: Q01DX009 (ip), vehicle: saline
[9] = dose: 25.0 mg/kg/injection, schedule: Q01DX009 (ip), vehicle: saline
[10] = dose: 12.5 mg/kg/injection, schedule: Q01DX009 (ip), vehicle: saline with Tween-80
[11] = dose: 25.0 mg/kg/injection, schedule: Q01DX009 (ip), vehicle: saline with Tween-80

Measured: T/C

Nc1nc(Cl)cc(=O)[nH]1
inactive: dose: 50.0 mg/kg/injection, schedule: Q04DX003 (ip), vehicle: Klucel (hydroxypropylcellulose) (HPC) 94 % of control | dose: 100.0 mg/kg/injection, schedule: Q04DX003 (ip), vehicle: Klucel (hydroxypropylcellulose) (HPC) 102 % of control | dose: 200.0 mg/kg/injection, schedule: Q04DX003 (ip), vehicle: Klucel (hydroxypropylcellulose) (HPC) 94 % of control | dose: 400.0 mg/kg/injection, schedule: Q04DX003 (ip), vehicle: Klucel (hydroxypropylcellulose) (HPC) 94 % of control

O=c1oc(-c2ccccc2CCl)nc2ccccc12
inactive: [1] 106 % of control | dose: 100.0 mg/kg/injection, schedule: Q01DX009 (ip), vehicle: saline with Tween-80 104 % of control | dose: 200.0 mg/kg/injection, schedule: Q01DX009 (ip), vehicle: saline with Tween-80 101 % of control

N=C(N)SC12CC3CC(CC(C3)C1)C2
inactive: dose: 7.5 mg/kg/injection, schedule: Q01DX005 (ip), vehicle: saline with Tween-80 93 % of control | dose: 15.0 mg/kg/injection, schedule: Q01DX005 (ip), vehicle: saline with Tween-80 98 % of control | dose: 30.0 mg/kg/injection, schedule: Q01DX005 (ip), vehicle: saline with Tween-80 99 % of control | dose: 60.0 mg/kg/injection, schedule: Q01DX005 (ip), vehicle: saline with Tween-80 98 % of control

Cc1cn(C2CC(O)C(Cn3ccc4ccccc43)O2)c(=O)[nH]c1=O (stereo unspecified)
inactive: dose: 1.56 mg/kg/injection, schedule: Q01DX009 (ip), vehicle: Klucel (hydroxypropylcellulose) (HPC) 103 % of control | dose: 3.13 mg/kg/injection, schedule: Q01DX009 (ip), vehicle: Klucel (hydroxypropylcellulose) (HPC) 99 % of control | dose: 6.25 mg/kg/injection, schedule: Q01DX009 (ip), vehicle: Klucel (hydroxypropylcellulose) (HPC) 99 % of control | dose: 12.5 mg/kg/injection, schedule: Q01DX009 (ip), vehicle: Klucel (hydroxypropylcellulose) (HPC) 99 % of control | dose: 25.0 mg/kg/injection, schedule: Q01DX009 (ip), vehicle: Klucel (hydroxypropylcellulose) (HPC) 97 % of control

Cc1c(N2CCCC2)cc2c(c1-n1cccc1)C(C)(C)CC2(C)C
inactive: [2] 102 % of control | [3] 96 % of control | [4] 96 % of control

Nc1ccc(C2NC(=O)Cc3ccccc32)cc1 (stereo unspecified)
inactive: [5] 92 % of control | [6] 90 % of control | dose: 200.0 mg/kg/injection, schedule: Q01DX009 (ip), vehicle: saline 86 % of control

CN(CC[n+]1cccc(C(N)=O)c1)N=O
inactive: dose: 100.0 mg/kg/injection, schedule: Q01DX001 (ip), vehicle: saline 108 % of control | dose: 200.0 mg/kg/injection, schedule: Q01DX001 (ip), vehicle: saline 100 % of control | dose: 400.0 mg/kg/injection, schedule: Q01DX001 (ip), vehicle: saline 107 % of control

CC(=O)Nc1ccsc1S(=O)(=O)c1sccc1NC(C)=O
inactive: dose: 100.0 mg/kg/injection, schedule: Q04DX002 (ip), vehicle: saline with Tween-80 100 % of control | dose: 200.0 mg/kg/injection, schedule: Q04DX002 (ip), vehicle: saline with Tween-80 99 % of control | dose: 400.0 mg/kg/injection, schedule: Q04DX002 (ip), vehicle: saline with Tween-80 98 % of control

CC(=O)Nc1ccc(C(=O)N/N=C/c2ccc(O)cc2)cc1
inactive: dose: 50.0 mg/kg/injection, schedule: Q01DX005 (ip), vehicle: saline 99 % of control | dose: 100.0 mg/kg/injection, schedule: Q01DX005 (ip), vehicle: saline 102 % of control | dose: 200.0 mg/kg/injection, schedule: Q01DX005 (ip), vehicle: saline 100 % of control

CCC1CN1P(=O)(N(CC)CC)N1CC1CC (stereo unspecified)
inactive: [5] 109 % of control
active: [6] 170 % of control

Nc1nc2ncc(CNc3ccc(C(=O)NC(CCC(=O)O)C(=O)O)cc3)nc2c(=O)[nH]1 (stereo unspecified)
inactive: [7] 103 % of control | [8] 99 % of control and 98 % of control | [9] 99 % of control and 96 % of control | dose: 45.0 mg/kg/injection, schedule: Q04DX003 (ip), vehicle: saline 103 % of control | [1] 108 % of control | [5] 101 % of control and 103 % of control | dose: 90.0 mg/kg/injection, schedule: Q04DX003 (ip), vehicle: saline 61 % of control | [6] 98 % of control | dose: 180.0 mg/kg/injection, schedule: Q04DX003 (ip), vehicle: saline 40 % of control

CN1CCN2c3ccccc3Cc3ccccc3C2C1 (stereo unspecified)
inactive: [7] 90 % of control | [8] 94 % of control | [9] 105 % of control and 107 % of control | [5] 118 % of control and 119 % of control

CC1CC[N-]C(C)C1.CN(C)C=O.[Cl][Pt][Cl] (stereo unspecified)
inactive: dose: 1.56 mg/kg/injection, schedule: Q01DX009 (ip), vehicle: saline with Tween-80 114 % of control | dose: 3.13 mg/kg/injection, schedule: Q01DX009 (ip), vehicle: saline with Tween-80 124 % of control

O=C(O)CCCc1cc(I)c(N(CCCl)CCCl)c(I)c1
inactive: [10] 121 % of control | [11] 107 % of control | [1] 121 % of control

CC(=O)OC1C(C)C2CCC13CC=C(C)CC23 (stereo unspecified)
inactive: dose: 50.0 mg/kg/injection, schedule: Q01DX005 (ip), vehicle: Klucel (hydroxypropylcellulose) (HPC) 101 % of control | dose: 100.0 mg/kg/injection, schedule: Q01DX005 (ip), vehicle: Klucel (hydroxypropylcellulose) (HPC) 108 % of control | dose: 200.0 mg/kg/injection, schedule: Q01DX005 (ip), vehicle: Klucel (hydroxypropylcellulose) (HPC) 110 % of control

Cc1ccc2c(CC(C)(C)[N+]3(C)CCCC3)ccc(C(C)C)cc1-2
inactive: dose: 100.0 mg/kg/injection, schedule: Q04DX002 (ip), vehicle: Klucel (hydroxypropylcellulose) (HPC) 114 % of control | dose: 200.0 mg/kg/injection, schedule: Q04DX002 (ip), vehicle: Klucel (hydroxypropylcellulose) (HPC) 112 % of control | dose: 400.0 mg/kg/injection, schedule: Q04DX002 (ip), vehicle: Klucel (hydroxypropylcellulose) (HPC) 105 % of control

C[CH2][Sn]1([CH2]C)[O]C(=O)[O][Sn]([CH2]C)([CH2]C)[O]1
inactive: dose: 3.12 mg/kg/injection, schedule: Q01DX005 (ip), vehicle: Klucel (hydroxypropylcellulose) (HPC) 122 % of control | dose: 6.25 mg/kg/injection, schedule: Q01DX005 (ip), vehicle: Klucel (hydroxypropylcellulose) (HPC) 119 % of control

O=C1CCC([N+](=O)[O-])([N+](=O)[O-])CO1
inactive: dose: 100.0 mg/kg/injection, schedule: Q01DX001 (ip), vehicle: saline with Tween-80 111 % of control | dose: 200.0 mg/kg/injection, schedule: Q01DX001 (ip), vehicle: saline with Tween-80 106 % of control | dose: 400.0 mg/kg/injection, schedule: Q01DX001 (ip), vehicle: saline with Tween-80 113 % of control

C/C([O-])=C(/c1nc(-c2ccc([N+](=O)[O-])o2)no1)[n+]1cc(C)ccc1C
inactive: dose: 6.25 mg/kg/injection, schedule: Q01DX009 (ip), vehicle: saline with Tween-80 92 % of control | [10] 94 % of control | [11] 97 % of control | [1] 94 % of control

CCCCCCCCCC(O)CCCCCC (stereo unspecified)
inactive: dose: 88.0 mg/kg/injection, schedule: Q01DX009 (ip), vehicle: other 109 % of control | dose: 132.0 mg/kg/injection, schedule: Q01DX009 (ip), vehicle: other 109 % of control | dose: 200.0 mg/kg/injection, schedule: Q01DX009 (ip), vehicle: other 118 % of control

COc1ccc(C(c2cc(C(C)(C)C)cc(C(C)(C)C)c2O)N2CCCCC2)cc1 (stereo unspecified)
inactive: dose: 50.0 mg/kg/injection, schedule: Q01DX005 (ip), vehicle: distilled water + alcohol 97 % of control | dose: 100.0 mg/kg/injection, schedule: Q01DX005 (ip), vehicle: distilled water + alcohol 100 % of control | dose: 200.0 mg/kg/injection, schedule: Q01DX005 (ip), vehicle: distilled water + alcohol 99 % of control

COc1ccc(-c2nccc3cc(OC)c(OC)cc23)cc1OC
inactive: dose: 6.25 mg/kg/injection, schedule: Q01DX009 (ip), vehicle: water 100 % of control | dose: 12.5 mg/kg/injection, schedule: Q01DX009 (ip), vehicle: water 103 % of control | dose: 25.0 mg/kg/injection, schedule: Q01DX009 (ip), vehicle: water 106 % of control | dose: 50.0 mg/kg/injection, schedule: Q01DX009 (ip), vehicle: water 118 % of control

O=C1Nc2ccccc2/C1=N/N=C/c1ccc(Cl)cc1Cl
inactive: [2] 100 % of control | [3] 88 % of control and 90 % of control | [4] 100 % of control and 98 % of control

CNC(=O)OCc1c(COC(=O)NC)c2n(c1C)CS(=O)(=O)C2
active: dose: 100.0 mg/kg/injection, schedule: Q01DX005 (ip), vehicle: saline with Tween-80 204 % of control and 211 % of control
inactive: dose: 25.0 mg/kg/injection, schedule: Q01DX005 (ip), vehicle: saline with Tween-80 122 % of control
